Earlier results on one molecule are cited in US9993454B2, “Solid nanoparticle formulation of water insoluble pharmaceutical substances with reduced Ostwald ripening” (Luminus Biosciences, Inc., priority 2006, dated 2018).

The conditions of the data set: most test systems.

Turning to `C/C(=C\c1csc(C)n1)[C@@H]1C[C@@H]2O[C@]2(C)CCC[C@H](C)[C@H](O)[C@@H](C)C(=O)C(C)(C)[C@@H](O)CC(=O)O1` [epothilone B], the “effectiveness relative to epothilone A” value is given as “approximately ten-time more effective”.
